Source: ChEMBL document CHEMBL6109084 (Eur J Med Chem, 2025)

What was measured:
Coagulation factor XI = Coagulation factor XI (Homo sapiens, UniProt P03951); experiment: Inhibition of human FXIa using p-Glu-Pro-Arg-pNA.HCl as substrate incubated for 30 mins followed by substrate addition and measured after 60 mins by microplate reader analysis
Plasma = experiment: Anticoagulant activity in citrated human plasma assessed as prolongation of activated partial thromboplastin time at 1 uM incubated for 3 mins by aPTT reagent based automated coagulometric analysis relative to control; assay type: functional; conditions: 0.05 h

Coagulation factor XI, sequence (P03951 19-387 limits assumed): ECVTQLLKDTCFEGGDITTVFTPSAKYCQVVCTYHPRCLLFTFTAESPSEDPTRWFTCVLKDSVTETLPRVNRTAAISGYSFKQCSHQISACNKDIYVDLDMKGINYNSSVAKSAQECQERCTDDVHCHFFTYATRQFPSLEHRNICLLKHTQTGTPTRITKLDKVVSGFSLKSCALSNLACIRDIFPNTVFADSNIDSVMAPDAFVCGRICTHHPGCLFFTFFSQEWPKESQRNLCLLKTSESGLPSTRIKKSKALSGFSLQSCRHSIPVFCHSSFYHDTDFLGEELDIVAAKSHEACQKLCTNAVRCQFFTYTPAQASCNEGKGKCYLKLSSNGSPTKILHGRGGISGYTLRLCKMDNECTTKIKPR
Coagulation factor XI, sequence (P03951 388-625 limits assumed): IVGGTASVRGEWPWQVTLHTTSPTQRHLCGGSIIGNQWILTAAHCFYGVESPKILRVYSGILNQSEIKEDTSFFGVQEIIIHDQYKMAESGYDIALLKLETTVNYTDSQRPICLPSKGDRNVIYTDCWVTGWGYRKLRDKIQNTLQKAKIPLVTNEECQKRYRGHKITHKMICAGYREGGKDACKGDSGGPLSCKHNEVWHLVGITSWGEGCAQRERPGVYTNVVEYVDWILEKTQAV

SMILES	IC50 (Coagulation factor XI) [nM]	Activity (Plasma) [%]
COc1cn(Cc2cccc(-c3ccc(NC(C)=O)cc3)c2)c(=O)cc1-c1cc(Cl)ccc1-n1cnnn1	6.4	50.8
COc1cn(Cc2ccc(F)c(-c3ccncc3)c2)c(=O)cc1-c1cc(Cl)ccc1-n1cc(Cl)nn1	4.9	74.7
COc1cn(C(C)c2ccc(F)c(-c3ccc(N)nc3)c2)c(=O)cc1-c1cc(Cl)ccc1-n1cnnn1 (centres undefined)	1.4	14.8
COc1cn(Cc2ccnc(-c3ccc(N)nc3)c2)c(=O)cc1-c1cc(Cl)ccc1-n1cnnn1	0.33	112.5
CCC(c1cc(-c2ccc(N)nc2F)ccn1)n1cc(OC)c(-c2cc(Cl)ccc2-n2cnnn2)cc1=O (racemic)	0.39	97.2
CNC(=O)c1ccc(-c2cc(Cn3cc(OC)c(-c4cc(Cl)ccc4-n4cnnn4)cc3=O)ccc2F)cc1	5.2	49.9
COc1cn(Cc2ccc(F)c(-c3ccc(C(N)=O)cc3F)c2)c(=O)cc1-c1cc(Cl)ccc1-n1cnnn1	4.7	47
COc1cn(Cc2cccc(-c3ccc(N)nc3)c2)c(=O)cc1-c1cc(Cl)ccc1-n1cc(Cl)nn1	2.2	82.8
COc1cn(Cc2cccc(-c3cnc(N)nc3)c2)c(=O)cc1-c1cc(Cl)ccc1-n1cnnn1	11.5	–
COc1ccc(Cn2cc(OC)c(-c3cc(Cl)ccc3-n3cnnn3)cc2=O)cc1-c1ccncc1	2.1	70
COc1cn(Cc2ccc3ccccc3c2)c(=O)cc1-c1cc(Cl)ccc1-n1cnnn1	39	–
COc1cn(Cc2cccc(-c3ccc(F)cc3)c2)c(=O)cc1-c1cc(Cl)ccc1-n1cnnn1	10.1	–
COc1cn(Cc2cccc(-c3ccncc3)c2)c(=O)cc1-c1cc(Cl)ccc1OC(F)F	> 500	–
CNC(=O)c1ccc(-c2cccc(Cn3cc(OC)c(-c4cc(Cl)ccc4-n4cnnn4)cc3=O)c2)cc1	5.9	45.4
COc1cn(Cc2ccc(F)c(-c3ccc4[nH]ncc4c3)c2)c(=O)cc1-c1cc(Cl)ccc1-n1cnnn1	1.3	57.1
COc1cn(Cc2cccc(-c3ccc(N)nc3F)c2)c(=O)cc1-c1cc(Cl)ccc1-n1cnnn1	0.39	103.4
COc1ccc(-c2cccc(Cn3cc(OC)c(-c4cc(Cl)ccc4-n4cnnn4)cc3=O)c2)cc1	129	–
COc1cn(Cc2cc(-c3cnc(N)nc3)ccn2)c(=O)cc1-c1cc(Cl)ccc1-n1cnnn1	95.3	–
COc1cn(Cc2cccc(-c3ccc4[nH]ncc4c3)c2)c(=O)cc1-c1cc(Cl)ccc1-n1cnnn1	4	38.7
COc1cn(C(C)c2cccc(-c3ccncc3)c2)c(=O)cc1-c1cc(Cl)ccc1-n1cnnn1 (centres undefined)	2.4	80.1
COc1cn(Cc2ccc(F)c(-c3ccc(N)nc3)c2)c(=O)cc1-c1cc(Cl)ccc1-n1cc(Cl)nn1	3.2	55.4
CC[C@H](c1cc(-c2ccc(N)nc2F)ccn1)n1cc(OC)c(-c2cc(Cl)ccc2-n2cnnn2)cc1=O	6.7	56.3
COc1cn(Cc2cccc(-c3ccc(N)nc3)c2)c(=O)cc1-c1cc(Cl)ccc1C(F)F	> 1000	–
COc1ccc(Cn2cc(OC)c(-c3cc(Cl)ccc3-n3cnnn3)cc2=O)cc1-c1ccc(N)nc1	1.7	50.4
COc1cn(Cc2ccc(F)c(-c3ccncc3)c2)c(=O)cc1-c1cc(Cl)ccc1-n1cnnn1	1.8	129.8

Further lines, with some results ahead:

IC50 (Coagulation factor XI) [nM]	SMILES	Activity (Plasma) [%]
0.69	COc1cn(Cc2ccc(F)c(-c3ccc(N)nc3)c2)c(=O)cc1-c1cc(Cl)ccc1-n1cnnn1	128.5
3	COc1cn(Cc2cccc(-c3ccc(C(N)=O)cc3F)c2)c(=O)cc1-c1cc(Cl)ccc1-n1cnnn1	82.8
1100	COc1c[nH]c(=O)cc1-c1cc(Cl)ccc1-n1cnnn1	–
1.6	CCC(c1cccc(-c2ccc(N)nc2)c1)n1cc(OC)c(-c2cc(Cl)ccc2-n2cc(Cl)nn2)cc1=O (centres undefined)	55.6
0.35	COc1cn(Cc2cccc(-c3ccc(N)nc3)c2)c(=O)cc1-c1cc(Cl)ccc1-n1cnnn1	143.3
> 1000	COc1cn(Cc2cccc(-c3ccncc3)c2)c(=O)cc1-c1cc(Cl)ccc1C(F)F	–
> 500	COc1cn(Cc2cccc(-c3ccc(N)nc3)c2)c(=O)cc1-c1cc(Cl)ccc1OC(F)F	–
0.54	COc1cn(C(C)c2cccc(-c3ccc(N)nc3)c2)c(=O)cc1-c1cc(Cl)ccc1-n1cnnn1 (centres undefined)	74.3
4.2	COc1cn(Cc2cccc(-c3ccncc3)c2)c(=O)cc1-c1cc(Cl)ccc1-n1cc(Cl)nn1	78.1
1.9	COc1cn(Cc2ccc(F)c(-c3ccc(NC(C)=O)cc3)c2)c(=O)cc1-c1cc(Cl)ccc1-n1cnnn1	86.8
1.7	COc1cn(Cc2cccc(-c3ccc(O)cc3)c2)c(=O)cc1-c1cc(Cl)ccc1-n1cnnn1	26.6
2.3	COc1cn(Cc2ccnc(-c3ccncc3)c2)c(=O)cc1-c1cc(Cl)ccc1-n1cnnn1	113.1
1.4	COc1cn(Cc2ccc(F)c(-c3ccc(O)cc3)c2)c(=O)cc1-c1cc(Cl)ccc1-n1cnnn1	63.2
203	COc1cn(Cc2ccc(-c3ccc(O)cc3)cc2)c(=O)cc1-c1cc(Cl)ccc1-n1cnnn1	–
15.1	COc1cn(Cc2cccc(-c3ccc(F)cc3F)c2)c(=O)cc1-c1cc(Cl)ccc1-n1cnnn1	–
> 500	COc1cn(Cc2cccc(-c3ccc(N(C)C)cc3)c2)c(=O)cc1-c1cc(Cl)ccc1-n1cnnn1	–
